Experimental data published in US9545389B2, “Baclofen and acamprosate based therapy of macular degeneration disorders” (PHARNEXT, priority 2012, dated 2017).

What was measured:
Type in all cases: cell-based
[1] = test system: Rat dopaminergic neurons (mesencephalic culture); test: TH neurons survival test after 48 h 6-OHDA injury on dopaminergic neurons; details: for In vitro 6OHDA resistance: TH neurons survival after 48 h 6-OHDA (20 μM) injury
Experimental: Rat dopaminergic neurons were cultured as described by Schinelli et al. (1988). Pregnant female rats of 15 days gestation were killed by cervical dislocation (Rats Wistar; Janvier) and the foetuses removed from the uterus. The embryonic midbrains were removed and placed in ice-cold medium of Leibovitz (L15; PanBiotech) containing 2% of Penicillin-Streptomycin (PS; PanBiotech) and 1% of bovine serum albumin (BSA; PanBiotech). Only the ventral portions of the mesencephalic flexure were used for the cell preparations as this is the region of the developing brain rich in dopaminergic neurons. The midbrains were dissociated by trypsinisation for 20 min at 37° C. (Trypsin EDTA 1×; PanBiotech). The reaction is stopped by the addition of Dulbecco's modified Eagle's medium (DMEM; PanBiotech) containing DNAase I grade II (0.1 mg/ml; PanBiotech) and 10% of foetal calf serum (FCS; Invitrogen). Cells were then mechanically dissociated by 3 passages through a 10 ml pipette and centrifuged at 180×g for 10 min at +4° C. on a layer of BSA (3.5%) in L15 medium. The supernatant was discarded and the cells of pellet were re-suspended in a defined culture medium consisting of Neurobasal (Invitrogen) supplemented with B27 (2%; Invitrogen), L-glutamine (2 mM; PanBiotech) and 2% of PS solution and 10 ng/ml of Brain-derived neurotrophic factor (BDNF, PanBiotech) and 1 ng/ml of Glial-Derived Neurotrophic Factor (GDNF, PanBiotech). Viable cells were counted in a Neubauer cytometer using the trypan blue exclusion test. The cells were seeded at a density of 40 000 cells/well in 96 well-plates (pre-coated with poly-L-lysine (Greiner)) and are cultured at 37° C. in a humidified air (95%)/CO2 (5%) atmosphere. Half of the medium was changed every 2 days with fresh medium. Five to six percents of the neuronal cell population were dopaminergic neurons. […]
Data are expressed in percentage of control conditions (no intoxication, no 6OHDA=100%) in order to express the 6OHDA injury. All values are expressed as mean+/−SEM (s.e. mean) of the 3 cultures (n=6 wells per condition per culture). […]

Rat cortical neurons [2] = test: MetO assay (oxidative stress) in human amyloid-β1-42 intoxicated cortical neurons; parameters: key: − and −− intensity of lowering effect of compositions; − and −− intensity of lowering effect of compositions; details: Aβ1-42 1.25 μM 4 hours; lowering effect
Experimental: (§1) Rat cortical neurons were cultured as described by Singer et al., 1999 [28]. Briefly pregnant female rats of 15 days gestation were killed by cervical dislocation (Rats Wistar) and the fetuses were removed from the uterus. The cortex were removed and placed in ice-cold medium of Leibovitz (L15) containing 2% of Penicillin 10.000 U/ml and Streptomycin 10 mg/ml and 1% of bovine serum albumin (BSA). Cortex were dissociated by trypsin (0.05%) for 20 min at 37° C. The reaction was stopped by the addition of Dulbecco's modified Eagle's medium (DMEM) containing DNase1 grade II (0.1 mg/mL) and 10% of fetal calf serum (FCS). Cells were then mechanically dissociated by 3 serial passages through a 10 ml pipette. Cells were then centrifuged at 515×g for 10 min at 10° C. The supernatant was discarded and the pellet of cells will be re-suspended in a defined culture medium consisting of Neurobasal supplemented with B27 (2%), L-glutamine (0.2 mM), 2% of PS solution and 10 ng/mL of BDNF. Viable cells were counted in a Neubauer cytometer using the trypan blue exclusion test. […]
(§2) Data are expressed in percentage of control conditions (no intoxication, no amyloid=100%) in order to express the amyloid injury. All values are expressed as mean+/−SEM (s.e. mean) of the 3 cultures (n=6 wells per condition). […]

Rat cortical neurons [3] = test: Cytoplasmic cytochrome C (CytoC) assay in human amyloid-β1-42 intoxicated cortical neurons; parameters: key: − and −− intensity of lowering effect of compositions; − and −− intensity of lowering effect of compositions; details: Aβ1-42 1.25 μM 4 hours; lowering effect
Experimental: as §1, §2

Row | Molecule | In vitro 6OHDA resistance [1] | In vitro MetO level (Rat cortical neurons [2]) | In vitro CytC level (Rat cortical neurons [3]) | protection of dopaminergic neurons from 6-OHDA injury ([1]; 1 hour pre-treatment at 1.85 nM, positive control)
1 | CC(=O)NCCCS(=O)(=O)O [Acamprosate] | improvement | − | − | 
2 | NCC(CC(=O)O)c1ccc(Cl)cc1 (stereo not shown) [Baclofen] | improvement | − | − | 
3 | BDNF: Brain-derived neurotrophic factor, used as a positive control (protein, UniProt P23560 19-247, looked up) Neurotrophic factor BDNF …: APMKEANIRGQGGLAYPGVRTHGTLESVNGPKAGSRGLTSLADTFEHVIEELLDEDQKVRPNEENNKDADLYTSRVMLSSQVPLEPPLLFLLEEYKNYLDAANMSMRVRRHSDPARRGELSVCDSISEWVTAADKKTAVDMSGGTVTVLEKVPVSKGQLKQYFYETKCNPMGYTKEGCRGIDKRHWNSQCRTTQSYVRALTMDSKKRIGWRFIRIDTSCVCTLTIKRGR |  |  |  | significantly protected
